This is an account of results in patent US10034475B2, “Treated biodiesel glycerin” (Auburn University, priority 2007, dated 2018).

Molecules are shown by their SMILES.

Assay [1] concerns reniform nematode Rotylenchulus reniformis. The experiment in a line: Greenhouse pot test, soil drench, reniform nematode population in soil. It is filed as in vivo. Particulars: 1 Kg infested soil per pot, drench in 100 mls; urea alone 150 mgs/Kg soil; NBG 1-5 mls/kg soil without urea. Here is the method: The effect of neutralized bioglycerin (NBG), either in the presence or absence of organic nitrogen, was tested on the growth of cotton plants and parasitic nematodes. Neutralized bioglycerin (NBG) was applied at rates of 0, 1, 2, 3, 4, and 5 mls/kg soil either with or without urea (150 mgs/Kg soil of the compound to achieve about 70 mgs N/Kg soil). Applications were performed by drenching the soil in aqueous solution so that the final application volume per pot was 100 mls (which is equivalent to an acre inch of irrigation). Each pot contained 1 Kg of soil infested with the reniform nematode Rotylenchulus reniformis and there were 7 replications (pots)/treatment. Thus, for example, for the 1 ml NBG application there were 14 pots, 7 of which received each water up to 100 mls containing 1 ml NBG; the other 7 pots received each 1 ml NBG+150 mgs urea mixed in a final volume of 100 mls. The carbon:nitrogen ratios (C/N) of the combined treatments ranged from about 5.6 for the 1 ml NBG treatment to 28 for the 5 mls NBG treatment.

In assay [2] the test system is fungi. The settings on record: greenhouse and field experiments; cited from earlier work.
Assay [3] deals with nematodes. Particulars: greenhouse and field experiments; cited from earlier work.

For the molecule `NC(N)=O` [Urea, urea], the “effect on reniform nematode numbers” value in assay [1] is reported as “suppressed”. With `C=CC=O` [acrolein, 2-propenal], the fungicidal activity entry in assay [2] is recorded as “fungicidal”. Also, in assay [3], the nematocidal activity entry is listed as “nematocidal”.
